Assay results: ChEMBL document CHEMBL1201862, “PubChem BioAssay data set” (2004)
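Dose response: 5 concentrations. Exposure: 48 h. Format: 96-well plates. Endpoint: linear interpolation; highest concentration if not reached. At the GI50, growth is halved.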 Calls of active or inactive are those of the source. No stated cut-off is given here; in the data, active = GI50 up to about 1.1 µM and inactive = higher.

What was measured:
Assay in all cases: inhibition of tumour cell growth, NCI panel, 48 h
ACHN = tested on: ACHN
DU-145 = tested on: DU-145
HOP-62 = tested on: HOP-62
K562 = tested on: K562
M14 = tested on: M14
MCF7 = tested on: MCF7
MDA-MB-231 = tested on: MDA-MB-231
MOLT-4 = tested on: MOLT-4
NCI-H23 = tested on: NCI-H23
NCI-H460 = tested on: NCI-H460
OVCAR-8 = tested on: OVCAR-8
SK-OV-3 = tested on: SK-OV-3
SNB-75 = tested on: SNB-75
SW-620 = tested on: SW-620
T47D = tested on: T47D
TK-10 = tested on: TK-10
U-251 = tested on: U-251
UACC-257 = tested on: UACC-257
LOX IMVI = tested on: LOX IMVI
HOP-92 = tested on: HOP-92

Row | SMILES | GI50 (ACHN) | GI50 (DU-145) | GI50 (HOP-62) | GI50 (K562) | GI50 (M14) | GI50 (MCF7) | GI50 (MDA-MB-231) | GI50 (MOLT-4) | GI50 (NCI-H23) | GI50 (NCI-H460) | GI50 (OVCAR-8) | GI50 (SK-OV-3) | GI50 (SNB-75) | GI50 (SW-620) | GI50 (T47D) | GI50 (TK-10) | GI50 (U-251) | GI50 (UACC-257) | GI50 (LOX IMVI) | GI50 (HOP-92)
1 | Cc1ncc([N+](=O)[O-])n1CCNC(=O)Cn1c([N+](=O)[O-])cnc1C | > 100 µM (inactive) | 92.5 µM (inactive) | > 100 µM (inactive) | > 100 µM (inactive) | > 100 µM (inactive) | > 100 µM (inactive) | > 100 µM (inactive) | > 100 µM (inactive) | > 100 µM (inactive) | > 100 µM (inactive) | > 100 µM (inactive) | > 100 µM (inactive) | 76.2 µM (inactive) | > 100 µM (inactive) | > 100 µM (inactive) | > 100 µM (inactive) | > 100 µM (inactive) | > 100 µM (inactive) | – | –
2 | CCN1CN(c2ccccc2)C2(CCN(CC3COc4ccccc4O3)CC2)C1=O (configuration not stated) | 23.1 µM (inactive) | 36.6 µM (inactive) | 35.6 µM (inactive) | 37.9 µM (inactive) | 2.21 µM (inactive) | 26.1 µM (inactive) | 2.57 µM (inactive) | 14.5 µM (inactive) | 40.6 µM (inactive) | 18.2 µM (inactive) | 34.7 µM (inactive) | 28.6 µM (inactive) | 30.2 µM (inactive) | 47.8 µM (inactive) | 24.3 µM (inactive) | 25.8 µM (inactive) | 30.6 µM (inactive) | 35.3 µM (inactive) | 17.9 µM (inactive) | –
3 | O=C1c2ccccc2CC12CCC1(CC2)OCCO1 | > 100 µM (inactive) | > 100 µM (inactive) | > 100 µM (inactive) | > 100 µM (inactive) | > 100 µM (inactive) | > 100 µM (inactive) | > 100 µM (inactive) | > 100 µM (inactive) | > 100 µM (inactive) | > 100 µM (inactive) | > 100 µM (inactive) | > 100 µM (inactive) | > 100 µM (inactive) | > 100 µM (inactive) | > 100 µM (inactive) | > 100 µM (inactive) | > 100 µM (inactive) | > 100 µM (inactive) | > 100 µM (inactive) | –
4 | S=c1[nH]n2c(CCCCCCCCc3nnc4sc(=S)[nH]n34)nnc2s1 | > 100 µM (inactive) | > 100 µM (inactive) | > 100 µM (inactive) | > 100 µM (inactive) | > 100 µM (inactive) | > 100 µM (inactive) | > 100 µM (inactive) | > 100 µM (inactive) | > 100 µM (inactive) | > 100 µM (inactive) | > 100 µM (inactive) | > 100 µM (inactive) | > 100 µM (inactive) | > 100 µM (inactive) | > 100 µM (inactive) | – | > 100 µM (inactive) | > 100 µM (inactive) | – | > 100 µM (inactive)
5 | COC(=O)C1=C(CCCCO[Si](C)(C)C(C)(C)C)NC(=O)N2[C@@H](CCOCc3ccccc3)CC[C@H]12 | 29.1 µM (inactive) | 12.8 µM (inactive) | 24.2 µM (inactive) | 25.1 µM (inactive) | 25.8 µM (inactive) | 27 µM (inactive) | 18.2 µM (inactive) | 18.4 µM (inactive) | 7.98 µM (inactive) | 25.9 µM (inactive) | – | 45.3 µM (inactive) | 25.2 µM (inactive) | – | 15.8 µM (inactive) | 40.3 µM (inactive) | 14.4 µM (inactive) | 21.1 µM (inactive) | – | 15.5 µM (inactive)
6 | Cc1c(C)c(S(=O)(=O)N(CCCN)OCCCN)c(C)c2c1OC(C)(C)C2 | 29.6 µM (inactive) | 30.6 µM (inactive) | 35.6 µM (inactive) | 35 µM (inactive) | 18.1 µM (inactive) | 20.5 µM (inactive) | 14.8 µM (inactive) | 20.4 µM (inactive) | 29.8 µM (inactive) | 36.8 µM (inactive) | 80.5 µM (inactive) | 39.4 µM (inactive) | 17.3 µM (inactive) | 27.5 µM (inactive) | 32.6 µM (inactive) | 45.5 µM (inactive) | 17.3 µM (inactive) | 34.3 µM (inactive) | 19.6 µM (inactive) | –
7 | O=C(CSCC(=O)N/N=C/c1ccc(F)cc1)N/N=C/c1ccc(F)cc1 | > 100 µM (inactive) | > 100 µM (inactive) | > 100 µM (inactive) | 57.1 µM (inactive) | 76.6 µM (inactive) | 46.6 µM (inactive) | > 100 µM (inactive) | 25.2 µM (inactive) | > 100 µM (inactive) | > 100 µM (inactive) | > 100 µM (inactive) | > 100 µM (inactive) | > 100 µM (inactive) | > 100 µM (inactive) | > 100 µM (inactive) | > 100 µM (inactive) | > 100 µM (inactive) | > 100 µM (inactive) | – | > 100 µM (inactive)
8 | CC(C)CC(O)P(=O)(O)O.NC1CCCCC1 (configuration not stated) | > 100 µM (inactive) | > 100 µM (inactive) | > 100 µM (inactive) | > 100 µM (inactive) | > 100 µM (inactive) | > 100 µM (inactive) | > 100 µM (inactive) | > 100 µM (inactive) | – | > 100 µM (inactive) | – | > 100 µM (inactive) | > 100 µM (inactive) | > 100 µM (inactive) | > 100 µM (inactive) | > 100 µM (inactive) | > 100 µM (inactive) | > 100 µM (inactive) | – | –
9 | C=CCN(c1cc(OC)c(NC(C)=O)cc1[N+](=O)[O-])S(C)(=O)=O | > 100 µM (inactive) | > 100 µM (inactive) | > 100 µM (inactive) | > 100 µM (inactive) | > 100 µM (inactive) | > 100 µM (inactive) | > 100 µM (inactive) | > 100 µM (inactive) | > 100 µM (inactive) | > 100 µM (inactive) | > 100 µM (inactive) | > 100 µM (inactive) | > 100 µM (inactive) | > 100 µM (inactive) | > 100 µM (inactive) | > 100 µM (inactive) | > 100 µM (inactive) | > 100 µM (inactive) | > 100 µM (inactive) | –
10 | COP(=O)(OC)C(O)CC(C)C (configuration not stated) | > 100 µM (inactive) | > 100 µM (inactive) | > 100 µM (inactive) | > 100 µM (inactive) | > 100 µM (inactive) | > 100 µM (inactive) | > 100 µM (inactive) | > 100 µM (inactive) | – | > 100 µM (inactive) | – | > 100 µM (inactive) | > 100 µM (inactive) | > 100 µM (inactive) | > 100 µM (inactive) | > 100 µM (inactive) | > 100 µM (inactive) | > 100 µM (inactive) | – | –
11 | Cc1c(-c2ccccc2)nn2cc(-c3ccccc3)nnc12 | 46.3 µM (inactive) | 30.4 µM (inactive) | 28.7 µM (inactive) | 31 µM (inactive) | 22.6 µM (inactive) | – | 18.3 µM (inactive) | 35.5 µM (inactive) | 31.9 µM (inactive) | 16.9 µM (inactive) | 67.3 µM (inactive) | 39.3 µM (inactive) | 20.7 µM (inactive) | 23 µM (inactive) | 61.2 µM (inactive) | 42.4 µM (inactive) | 19.2 µM (inactive) | 23.4 µM (inactive) | 19 µM (inactive) | 15.5 µM (inactive)
12 | Cc1ccc(Cc2n[nH]c(=O)n2-c2ccccc2)cc1 | > 100 µM (inactive) | > 100 µM (inactive) | – | > 100 µM (inactive) | – | > 100 µM (inactive) | > 100 µM (inactive) | > 100 µM (inactive) | > 100 µM (inactive) | > 100 µM (inactive) | > 100 µM (inactive) | – | > 100 µM (inactive) | > 100 µM (inactive) | 0.652 µM (active) | > 100 µM (inactive) | > 100 µM (inactive) | > 100 µM (inactive) | – | –
13 | CCN(CC)CCOc1ccccc1/C=C/c1noc2ccccc12 | 12.7 µM (inactive) | 15.7 µM (inactive) | 14.4 µM (inactive) | 9.29 µM (inactive) | 2.54 µM (inactive) | 14.2 µM (inactive) | 11.4 µM (inactive) | 12.1 µM (inactive) | 13.9 µM (inactive) | 11.6 µM (inactive) | 12.2 µM (inactive) | 20 µM (inactive) | 10.4 µM (inactive) | 10.2 µM (inactive) | 12.6 µM (inactive) | 15 µM (inactive) | – | 3.95 µM (inactive) | – | –
14 | COC(=O)n1c(=O)n(-c2ccccc2)c(=O)n1C(=O)OC | – | > 100 µM (inactive) | – | > 100 µM (inactive) | > 100 µM (inactive) | > 100 µM (inactive) | > 100 µM (inactive) | > 100 µM (inactive) | > 100 µM (inactive) | > 100 µM (inactive) | > 100 µM (inactive) | > 100 µM (inactive) | 51.2 µM (inactive) | > 100 µM (inactive) | > 100 µM (inactive) | > 100 µM (inactive) | > 100 µM (inactive) | > 100 µM (inactive) | > 100 µM (inactive) | –
15 | Cc1cc(C)c2nccc(NCCCN(C)C)c2c1[N+](=O)[O-] | 34.9 µM (inactive) | 44.2 µM (inactive) | 47.9 µM (inactive) | 31 µM (inactive) | 19.1 µM (inactive) | 30.5 µM (inactive) | 51.1 µM (inactive) | 39.6 µM (inactive) | 19.2 µM (inactive) | 26.8 µM (inactive) | 37.6 µM (inactive) | > 100 µM (inactive) | 24.9 µM (inactive) | 26.9 µM (inactive) | 33.3 µM (inactive) | 30.8 µM (inactive) | 52.5 µM (inactive) | 17.1 µM (inactive) | 18.6 µM (inactive) | –
